Test results as given in patent US20240025887A1, “THIENYL AND CYCLOALKYL AMINOPYRIMIDINE COMPOUNDS AS INHIBITORS OF NUAK KINASES, COMPOSITIONS AND USES THEREOF” (Ontario Institute for Cancer Research (OICR), priority 2021, published 2024).

Key:
Format in all cases: biochemical
NUAK2 (h) = target: T1, NUAK2 (h) (Homo sapiens, UniProt Q9H093); test: NUAK2 enzymatic assay (radiometric, Eurofins); conditions: for IC50: radiometric, full-length recombinant enzyme
T1 construct: This assay was done radiometrically using full-length, recombinant enzyme; purchased Eurofins
T1 sequence (Q9H093 1-628): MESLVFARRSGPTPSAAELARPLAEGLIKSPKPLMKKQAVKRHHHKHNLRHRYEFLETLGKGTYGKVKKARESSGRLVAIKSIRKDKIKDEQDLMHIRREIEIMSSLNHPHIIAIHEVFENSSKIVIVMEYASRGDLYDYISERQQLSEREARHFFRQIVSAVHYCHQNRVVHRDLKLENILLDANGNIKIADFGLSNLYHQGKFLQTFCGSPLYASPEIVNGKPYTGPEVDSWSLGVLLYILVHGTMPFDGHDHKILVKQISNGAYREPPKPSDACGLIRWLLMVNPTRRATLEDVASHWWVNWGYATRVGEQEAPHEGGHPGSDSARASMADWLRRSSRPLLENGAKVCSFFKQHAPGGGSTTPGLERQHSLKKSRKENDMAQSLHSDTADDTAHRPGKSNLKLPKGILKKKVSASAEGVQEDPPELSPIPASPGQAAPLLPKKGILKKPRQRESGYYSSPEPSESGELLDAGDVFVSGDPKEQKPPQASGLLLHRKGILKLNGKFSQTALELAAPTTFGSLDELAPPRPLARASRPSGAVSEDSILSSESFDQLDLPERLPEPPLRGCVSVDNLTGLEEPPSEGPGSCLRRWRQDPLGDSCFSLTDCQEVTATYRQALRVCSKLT
Description: (§1) To identify small molecule NUAK inhibitors, a biochemical NUAK2 enzymatic assay was outsourced to Eurofins. This assay was done radiometrically using full-length, recombinant enzyme. NUAK2 (h) was incubated with 8 mM MOPS pH 7.0, 0.2 mM EDTA, 300 μM […], 10 mM magnesium acetate and […] (specific activity and concentration as required). The reaction was initiated by the addition of the Mg/ATP mix. After incubation for 40 minutes at room temperature, the reaction was stopped by the addition of phosphoric acid to a concentration of 0.5%. 10 μL of the reaction was then spotted onto a P30 filter mat and washed four times for 4 minutes in 0.425% phosphoric acid and once in methanol prior to drying and scintillation counting. Compounds were routinely counter screened against Aurora A and NUAK1. The results are shown in Table 1 where IC50s are reported the following ranges: A: 0.1-10 nM; B: 11-100 nM; C: 101-1000 nM; D: >1000 nM for the compounds of Formula I)

NUAK1 = target: T2, NUAK1 (Homo sapiens, UniProt O60285); test: NUAK1 counter screen
T2 sequence (O60285 1-661): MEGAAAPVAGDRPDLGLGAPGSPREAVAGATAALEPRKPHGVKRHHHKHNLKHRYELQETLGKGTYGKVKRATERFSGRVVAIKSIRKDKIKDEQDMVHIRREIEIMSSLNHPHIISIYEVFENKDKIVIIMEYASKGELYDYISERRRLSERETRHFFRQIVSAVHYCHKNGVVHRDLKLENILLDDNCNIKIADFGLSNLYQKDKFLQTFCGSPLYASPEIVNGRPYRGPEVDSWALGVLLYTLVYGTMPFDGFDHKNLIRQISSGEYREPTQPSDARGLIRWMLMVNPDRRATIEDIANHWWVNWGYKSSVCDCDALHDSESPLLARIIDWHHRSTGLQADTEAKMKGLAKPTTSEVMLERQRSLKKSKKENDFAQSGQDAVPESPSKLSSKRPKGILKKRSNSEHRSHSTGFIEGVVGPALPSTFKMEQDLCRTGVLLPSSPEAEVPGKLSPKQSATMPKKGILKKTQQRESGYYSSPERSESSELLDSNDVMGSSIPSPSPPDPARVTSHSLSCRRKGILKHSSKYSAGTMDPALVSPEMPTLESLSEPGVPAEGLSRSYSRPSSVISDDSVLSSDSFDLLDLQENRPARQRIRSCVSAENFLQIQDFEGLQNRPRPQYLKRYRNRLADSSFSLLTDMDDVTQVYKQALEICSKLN
Description: as §1

Aurora A = target: T3, Aurora A (Homo sapiens, UniProt O14965); test: Aurora A counter screen; conditions: read-out: AUR-A (IC50)
T3 sequence (O14965 1-403): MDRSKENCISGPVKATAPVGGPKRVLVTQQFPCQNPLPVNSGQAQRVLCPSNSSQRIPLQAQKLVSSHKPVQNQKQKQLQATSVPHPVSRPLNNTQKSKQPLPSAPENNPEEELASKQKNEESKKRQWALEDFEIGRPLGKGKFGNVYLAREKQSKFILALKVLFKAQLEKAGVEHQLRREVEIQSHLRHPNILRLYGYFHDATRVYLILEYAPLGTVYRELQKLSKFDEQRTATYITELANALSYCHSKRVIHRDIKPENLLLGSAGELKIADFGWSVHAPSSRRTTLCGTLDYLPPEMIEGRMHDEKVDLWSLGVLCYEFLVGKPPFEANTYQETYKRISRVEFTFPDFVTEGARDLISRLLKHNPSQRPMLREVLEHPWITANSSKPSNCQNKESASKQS
Description: as §1

| Compound | IC50 (NUAK2 (h)) [nM] | IC50 (NUAK1) [nM] | IC50 (Aurora A) [nM] | AUR-A (IC50, nM)/NUAK2 (IC50, nM) (NUAK2 (h); NUAK2 selectivity over Aurora-A, ratio of IC50s) |
| --- | --- | --- | --- | --- |
| CN1CCc2cc(OC(F)F)c(Nc3ncc(Cl)c(Nc4ccsc4C(N)=O)n3)cc2C1 [Compound I-26, 3-((5-chloro-2-((6-(difluoromethoxy)-2-methyl-1,2,3,4-tetrahydroisoquinolin-7-yl)amino)pyrimidin-4-yl)amino)thiophene-2-carboxamide] | 11 to 100 | 101 to 1000 | 101 to 1000 | – |
| C[C@H]1CN(C)CCN1c1ccc(Nc2ncc(Cl)c(Nc3ccsc3C(N)=O)n2)c(OC(F)F)c1 [Compound I-29, (S)-3-((5-chloro-2-((2-(difluoromethoxy)-4-(2,4-dimethylpiperazin-1-yl)phenyl)amino)pyrimidin-4-yl)amino)thiophene-2-carboxamide] | 11 to 100 | 11 to 100 | 101 to 1000 | – |
| CN1CCN(c2ccc(Nc3nccc(Nc4ccsc4C(N)=O)n3)c(OC(F)F)c2)CC1 [Compound I-3, 3-((2-((2-(difluoromethoxy)-4-(4-methylpiperazin-1-yl)phenyl)amino)pyrimidin-4-yl)amino)thiophene-2-carboxamide] | 101 to 1000 | 101 to 1000 | > 1000 | – |
| C[C@H]1CN(C2CCN(c3ccc(Nc4ncc(Cl)c(Nc5ccsc5C(N)=O)n4)c(OC(F)F)c3)CC2)CCN1C [Compound I-65, (S)-3-((5-chloro-2-((2-(difluoromethoxy)-4-(4-(3,4-dimethylpiperazin-1-yl)piperidin-1-yl)phenyl)amino)pyrimidin-4-yl)amino)thiophene-2-carboxamide] | 11 to 100 | 11 to 100 | 101 to 1000 | – |
| CC(C)(C)N1CCN(C2CCN(c3ccc(Nc4ncc(Cl)c(Nc5ccsc5C(N)=O)n4)c(OC(F)F)c3)CC2)CC1 [Compound I-63, 3-((2-((4-(4-(4-(tert-butyl)piperazin-1-yl)piperidin-1-yl)-2-(difluoromethoxy)phenyl)amino)-5-chloropyrimidin-4-yl)amino)thiophene-2-carboxamide] | 11 to 100 | 0.1 to 10 | 101 to 1000 | – |
| CN(C1CCCCC1)C1CCN(c2ccc(Nc3ncc(Cl)c(Nc4ccsc4C(N)=O)n3)c(OC(F)F)c2)CC1 [Compound I-73, 3-((5-chloro-2-((4-(4-(cyclohexyl(methyl)amino)piperidin-1-yl)-2-(difluoromethoxy)phenyl)amino)pyrimidin-4-yl)amino)thiophene-2-carboxamide] | 11 to 100 | 11 to 100 | 101 to 1000 | – |
| NC(=O)c1sccc1Nc1nc(Nc2ccc(N3CCCC3)cc2OC(F)F)ncc1Cl [Compound I-28, 3-((5-chloro-2-((2-(difluoromethoxy)-4-(pyrrolidin-1-yl)phenyl)amino)pyrimidin-4-yl)amino)thiophene-2-carboxamide] | 101 to 1000 | 11 to 100 | 101 to 1000 | – |
| COc1cnc(Nc2ccc(N3CCN(C)CC3)cc2OC(F)F)nc1Nc1ccsc1C(N)=O [Compound I-81] | 11 to 100 | 101 to 1000 | – | – |

Other lines, results leading:

| IC50 (NUAK2 (h)) [nM] | IC50 (NUAK1) [nM] | IC50 (Aurora A) [nM] | AUR-A (IC50, nM)/NUAK2 (IC50, nM) (NUAK2 (h); NUAK2 selectivity over Aurora-A, ratio of IC50s) | Compound |
| --- | --- | --- | --- | --- |
| 11 to 100 | 11 to 100 | 101 to 1000 | – | CN1CCC(c2ccc(Nc3ncc(Cl)c(Nc4ccsc4C(N)=O)n3)c(OC(F)F)c2)CC1 [Compound I-25, 3-((5-chloro-2-((2-(difluoromethoxy)-4-(1-methylpiperidin-4-yl)phenyl)amino)pyrimidin-4-yl)amino)thiophene-2-carboxamide] |
| 0.1 to 10 | 0.1 to 10 | 101 to 1000 | – | NC(=O)c1sccc1Nc1nc(Nc2ccc(N3CCC(N4CCCCC4)CC3)cc2OC(F)F)ncc1Cl [Compound I-58, 3-((2-((4-([1,4′-bipiperidin]-1′-yl)-2-(difluoromethoxy)phenyl)amino)-5-chloropyrimidin-4-yl)amino)thiophene-2-carboxamide] |
| 101 to 1000 | 101 to 1000 | 101 to 1000 | – | NC(=O)c1ccsc1Nc1nc(Nc2ccc(N3CCN(CC(F)(F)F)CC3)cc2OC(F)F)ncc1Cl [Compound I-34, 2-((5-chloro-2-((2-(difluoromethoxy)-4-(4-(2,2,2-trifluoroethyl)piperazin-1-yl)phenyl)amino)pyrimidin-4-yl)amino)thiophene-3-carboxamide] |
| 11 to 100 | 11 to 100 | 11 to 100 | – | C[C@H]1CN(C)CCN1C1CCN(c2ccc(Nc3ncc(Cl)c(Nc4ccsc4C(N)=O)n3)c(OC(F)F)c2)CC1 [Compound I-70, (S)-3-((5-chloro-2-((2-(difluoromethoxy)-4-(4-(2,4-dimethylpiperazin-1-yl)piperidin-1-yl)phenyl)amino)pyrimidin-4-yl)amino)thiophene-2-carboxamide] |
| 11 to 100 | 11 to 100 | 101 to 1000 | 6 | COc1cc(N2CCC(N3CCN(C)CC3)CC2)ccc1Nc1ncc(Cl)c(Nc2ccsc2C(N)=O)n1 [Compound C-3, reference compound] |
| 11 to 100 | 11 to 100 | 101 to 1000 | – | CC(C)N1C[C@@H]2C[C@H]1CN2c1ccc(Nc2ncc(Cl)c(Nc3ccsc3C(N)=O)n2)c(OC(F)F)c1 (stereo in doubt) [Compound I-35, 3-((5-chloro-2-((2-(difluoromethoxy)-4-((1S,4S)-5-isopropyl-2,5-diazabicyclo[2.2.1]heptan-2-yl)phenyl)amino)pyrimidin-4-yl)amino)thiophene-2-carboxamide] |
| 0.1 to 10 | 11 to 100 | 101 to 1000 | – | CN1C[C@H]2C[C@@H]1CN2c1ccc(Nc2ncc(Cl)c(Nc3sccc3C(N)=O)n2)c(OC(F)F)c1 [Compound I-18, 2-((5-chloro-2-((2-(difluoromethoxy)-4-((1R,4R)-5-methyl-2,5-diazabicyclo[2.2.1]heptan-2-yl)phenyl)amino)pyrimidin-4-yl)amino)thiophene-3-carboxamide] |
| 11 to 100 | 101 to 1000 | > 1000 | – | CN1CCN(c2ccc(Nc3ncc(Cl)c(Nc4sccc4C(N)=O)n3)c(OC(F)(F)F)c2)CC1 [Compound I-19, 2-((5-chloro-2-((4-(4-methylpiperazin-1-yl)-2-(trifluoromethoxy)phenyl)amino)pyrimidin-4-yl)amino)thiophene-3-carboxamide] |
| – | 11 to 100 | > 1000 | – | CN1CCN(C2CCN(c3ccc(Nc4ncc(Cl)c(Nc5sccc5C(N)=O)n4)c(OC(F)F)c3)CC2)CC1 [Compound I-74, 2-((5-chloro-2-((2-(difluoromethoxy)-4-(4-(4-methylpiperazin-1-yl)piperidin-1-yl)phenyl)amino)pyrimidin-4-yl)amino)thiophene-3-carboxamide] |
| 11 to 100 | – | > 1000 | – | CNC(=O)c1sccc1Nc1nc(Nc2ccc(N3CCN(C)CC3)cc2C(F)(F)F)ncc1Cl [Compound I-59, 3-((5-chloro-2-((4-(4-methylpiperazin-1-yl)-2-(trifluoromethyl)phenyl)amino)pyrimidin-4-yl)amino)-N-methylthiophene-2-carboxamide] |
